This note sets out measurements from patent US10131664B2 (Celgene Quanticel Research, Inc., priority 2013, dated 2018).

The subject of one assay is THP-1 (AML) cells. Briefly: LSD1 CD11b cellular assay (flow cytometry). It counts as cell-based. Conditions: Homo sapiens, read-out: Cellular IC50. As to the method: To analyze LSD1 inhibitor efficacy in cells, a CD11b flow cytometry assay was performed. LSD1 inhibition induces CD11b expression in THP-1 (AML) cells which can be measured by flow cytometry. […] LSD1 test compounds were serially diluted in DMSO. The dilutions were added to each well accordingly to a final concentration of 0.2% DMSO. The cells were incubated at 37° C. in 5% CO2 for 4 days. 250 μL of each well was transferred to a well in a 96 well round bottom plate. The plate was centrifuged at 1200 rpm at 4 degrees Celsius in a Beckman Coulter Alegra 6KR centrifuge for 5 min. The media was removed leaving the cells at the bottom of the wells. The cells were washed in 100 μL cold HBSS (Hank's Balanced Salt Solution) plus 2% BSA (Bovine Serum Albumin) solution and centrifuged at 1200 rpm at 4° C. for 5 min. The wash was removed. […] The cells were centrifuged and washed two times in 100 μl HBSS plus 2% BSA. After the final spin the cells were resuspended in 100 μL HBSS plus 2% BSA containing 1 μg/mL DAPI (4′,6-diamidino-2-phenylindole). The cells were then analyzed by flow cytometry in a BD FACSAria machine. Cells were analyzed for CD11b expression. The percent of CD11b expressing cells for each inhibitor concentration was used to determine an IC50 curve for each compound analyzed.
In general terms: A flow cytometer gives signals particle by particle.

In the next assay the target is full-length human LSD1 (Homo sapiens (Human), UniProt O60341). The assay is described as follows: In vitro enzyme inhibition assay LSD-1 (TR-FRET). It counts as biochemical. As to the method: This assay determines the ability of a test compound to inhibit LSD1 demethylase activity.
The enzymatic assay of LSD1 activity is based on Time Resolved-Fluorescence Resonance Energy Transfer (TR-FRET) detection.
The ability of the compounds disclosed herein to inhibit LSD1 activity was quantified and the respective IC50 value was determined. Table 5 provides the IC50 values of various substituted heterocyclic compounds disclosed herein.
A general note: TR-FRET usually uses a lanthanide donor and a delayed reading to cut background.

Where [1] appears, read: 96 h, CD11b expression in THP-1 (AML) cells, flow cytometry, 4 days incubation.
Where [2] appears, read: TR-FRET, 0.1 nM LSD1, 50 nM H3K4me1-biotin peptide, 2 μM FAD, pH7.3, read-out: LSD1 IC50.

The structures appear in SMILES notation. Where a name gives a salt, the structure may show the parent alone. Read-outs that look alike come from different tables or passages of the source.

The term IC50 denotes the concentration that inhibits the measured activity by half. For `COc1nc(N2CCC(N)CC2)nc(-c2ccc(C#N)c(F)c2)c1-c1cnc2c(c1)nnn2C` [Example 157, 4-[2-(4-aminopiperidin-1-yl)-6-methoxy-5-{3-methyl-3H-[1,2,3]triazolo[4,5-b]pyridin-6-yl}pyrimidin-4-yl]-2-fluorobenzonitrile], the IC50 in the assay on THP-1 (AML) cells (setting [1]) and at full-length human LSD1 (setting [2]) was under 100 nM each time.

`Cn1ncc2cc(-c3cnc(N4CCC(N)CC4)nc3-c3ccc(C#N)cc3)cnc21` [Example 64, 4-[2-(4-aminopiperidin-1-yl)-5-(1-methylpyrazolo[3,4-b]pyridin-5-yl)pyrimidin-4-yl]benzonitrile]: the IC50 in the assay on THP-1 (AML) cells (setting [1]) and at full-length human LSD1 (setting [2]) was under 100 nM throughout.

On to `Cn1cnc2cc(-c3cnc(N4CCC(N)CC4)nc3-c3ccc(C#N)cc3)cnc21` [Example 66, 4-[2-(4-aminopiperidin-1-yl)-5-(3-methylimidazo[4,5-b]pyridin-6-yl)pyrimidin-4-yl]benzonitrile], for which the IC50 in the assay with THP-1 (AML) cells (setting [1]) and on full-length human LSD1 (setting [2]) was under 100 nM each time.

On to `CNc1nc(N2CCC(N)CC2)nc(-c2ccc(C#N)cc2)c1-c1ccc2c(c1)nnn2C` [Example 170], for which the IC50 in the assay on THP-1 (AML) cells (setting [1]) and on full-length human LSD1 (setting [2]) was under 100 nM throughout.

In the case of `Cc1ccc(-c2cnc(N3CCC4(CC3)CNC4)nc2-c2ccc(C#N)cc2)cc1` [Example 113, 4-[2-(2,7-diazaspiro[3.5]nonan-7-yl)-5-(4-methylphenyl)pyrimidin-4-yl]benzonitrile], the IC50 with THP-1 (AML) cells (setting [1]) is 100 to 1000 nM; on full-length human LSD1 (setting [2]) it was under 100 nM.

Take `COc1ccc(-c2nc3ccn(C[C@@H]4CCNC4)c3cc2-c2ccc(C#N)c(F)c2)cc1` [Example 52, HCl salt]: the IC50 in the assay with THP-1 (AML) cells (THP-1, 96 h) was under 100 nM; on full-length human LSD1 (setting [2]) it was under 100 nM.

Consider `Cn1cc(C#Cc2cnc(N3CCC(N)CC3)nc2-c2ccc(C#N)c(F)c2)nn1` [Example 100], for which the IC50 in the assay on THP-1 (AML) cells (setting [1]) and at full-length human LSD1 (setting [2]) was under 100 nM in each case.

On to `Cc1ccc(-c2nc3cnn(CC4CCNCC4)c3cc2-c2ccc(C#N)cc2)cc1` [Example 14], for which the IC50 in the assay on THP-1 (AML) cells (setting [1]) and on full-length human LSD1 (setting [2]) was under 100 nM each time.

On to `Cn1cc2ncc(-c3cnc(N4CCC(N)CC4)nc3-c3ccc(C#N)cc3)cc2n1` [Example 76, 4-[2-(4-aminopiperidin-1-yl)-5-(2-methylpyrazolo[4,3-b]pyridin-6-yl)pyrimidin-4-yl]benzonitrile], for which the IC50 was 100 to 1000 nM with THP-1 (AML) cells (setting [1]) and under 100 nM on full-length human LSD1 (setting [2]).

In the case of `Cn1cnc2cc(-c3cnc(N4CCC(N)CC4)nc3-c3ccc(C#N)cc3)ccc21` [Example 122, 4-[2-(4-aminopiperidin-1-yl)-5-(1-methylbenzimidazol-5-yl)pyrimidin-4-yl]benzonitrile], the IC50 in the assay on THP-1 (AML) cells (setting [1]) and at full-length human LSD1 (setting [2]) was under 100 nM in each case.

As for `Cc1ccc(-c2nc3ccn(CC4(F)CCNC4)c3cc2-c2ccc(C#N)cc2)cc1` (stereo not drawn) [Example 9, 4-[1-[(3-fluoropyrrolidin-3-yl)methyl]-5-(4-methylphenyl)pyrrolo[3,2-b]pyridin-6-yl]benzonitrile], the IC50 in the assay with THP-1 (AML) cells (setting [1]) was 100 to 1000 nM; against full-length human LSD1, under 100 nM.

Regarding `CNc1nc(N2CCC(N)CC2)nc(-c2ccc(C#N)c(F)c2)c1-c1ccc2c(c1)nnn2C` [Example 165, 4-[2-(4-aminopiperidin-1-yl)-5-(1-methyl-1H-1,2,3-benzotriazol-5-yl)-6-(methylamino)pyrimidin-4-yl]-2-fluorobenzonitrile], the IC50 in the assay with THP-1 (AML) cells (setting [1]) and on full-length human LSD1 (setting [2]) was under 100 nM each time.

Regarding `COc1ccc(-c2cnc(N3CCC(N)CC3)nc2-c2ccc(C#N)cc2)cn1` [Example 123, 4-[2-(4-aminopiperidin-1-yl)-5-(6-methoxypyridin-3-yl)pyrimidin-4-yl]benzonitrile], the IC50 in the assay on THP-1 (AML) cells (setting [1]) and on full-length human LSD1 (setting [2]) was under 100 nM in each case.

On to `Cc1ccc(-c2nc3cnn(C[C@H]4[C@@H]5CNC[C@@H]54)c3cc2-c2ccc(C#N)cc2)cc1` [Example 15, 4-[1-[[(1S,5R)-3-azabicyclo[3.1.0]hexan-6-yl]methyl]-5-(4-methylphenyl)pyrazolo[4,3-b]pyridin-6-yl]benzonitrile], for which the IC50 in the assay on THP-1 (AML) cells (setting [1]) and on full-length human LSD1 (setting [2]) was under 100 nM throughout.

Turning to `CNc1ncc(-c2cnc(N3CCC(N)CC3)nc2-c2ccc(C#N)c(F)c2)cn1` [Example 140, 4-[2-(4-aminopiperidin-1-yl)-5-[2-(methylamino)pyrimidin-5-yl]pyrimidin-4-yl]-2-fluorobenzonitrile], the results for the IC50 in the assay on THP-1 (AML) cells (setting [1]) and on full-length human LSD1 (setting [2]) were 100 to 1000 nM and under 100 nM, respectively.

Take `CNc1nc(N2CC[C@H](N)[C@H](F)C2)nc(-c2ccc(C#N)cc2)c1-c1ccc2nn(C)cc2c1` [Example 178, 4-{2-[(3R,4S)-4-amino-3-fluoropiperidin-1-yl]-5-(2-methyl-2H-indazol-5-yl)-6-(methylamino)pyrimidin-4-yl}benzonitrile]: the IC50 in the assay with THP-1 (AML) cells (setting [1]) and at full-length human LSD1 (setting [2]) was under 100 nM in each case.

For `COc1ccc(-c2cnc(N3CCC(N)CC3)nc2-c2ccc(C#N)cc2)cc1` [Example 83, 4-[2-(4-aminopiperidin-1-yl)-5-(4-methoxyphenyl)pyrimidin-4-yl]benzonitrile], the IC50 in the assay with THP-1 (AML) cells (setting [1]) and at full-length human LSD1 (setting [2]) was under 100 nM throughout.

`N#Cc1ccc(-c2nc(N3CCC4CNCC4CC3)ncc2-c2ccc3scnc3c2)cc1` (stereo not drawn) [Example 146, 4-[2-(2,3,3a,4,5,7,8,8a-octahydro-1H-pyrrolo[3,4-d]azepin-6-yl)-5-(1,3-benzothiazol-5-yl)pyrimidin-4-yl]benzonitrile]: the IC50 in the assay with THP-1 (AML) cells (setting [1]) and at full-length human LSD1 (setting [2]) was under 100 nM throughout.

For the molecule `Cn1cc2ccc(-c3cnc(N4CCC(N)CC4)nc3-c3ccc(C#N)cc3)cc2n1` [Example 129, 4-[2-(4-aminopiperidin-1-yl)-5-(2-methylindazol-6-yl)pyrimidin-4-yl]benzonitrile], the IC50 in the assay with THP-1 (AML) cells (setting [1]) and at full-length human LSD1 (setting [2]) was under 100 nM each time.

For `COc1nc(N2CCC(N)CC2)nc(-c2ccc(C#N)c(F)c2)c1-c1ccc2nn(C)cc2c1` [Example 147, 4-[2-(4-aminopiperidin-1-yl)-6-methoxy-5-(2-methyl-2H-indazol-5-yl)pyrimidin-4-yl]-2-fluorobenzonitrile], the IC50 in the assay on THP-1 (AML) cells (setting [1]) and at full-length human LSD1 (setting [2]) was under 100 nM each time.

Regarding `CNc1nc(N2CCC(N)CC2)nc(-c2ccc(C#N)c(F)c2)c1-c1ccc2c(cnn2C)c1` [Example 161, 4-[2-(4-aminopiperidin-1-yl)-5-(l-methyl-1H-indazol-5-yl)-6-(methylamino)pyrimidin-4-yl]-2-fluorobenzonitrile], the IC50 with THP-1 (AML) cells (setting [1]) and at full-length human LSD1 (setting [2]) was under 100 nM each time.

For `CNc1nc(N2CCC(N)CC2)nc(-c2ccc(C#N)c(F)c2)c1-c1cnc2c(c1)nnn2C` [Example 171, 4-[2-(4-aminopiperidin-1-yl)-5-{3-methyl-3H-[1,2,3]triazolo[4,5-b]pyridin-6-yl}-6-(methylamino)pyrimidin-4-yl]-2-fluorobenzonitrile], the IC50 in the assay with THP-1 (AML) cells (setting [1]) and at full-length human LSD1 (setting [2]) was under 100 nM each time.

With `COc1nc(N2CCCC(N)CC2)nc(-c2ccc(C#N)c(F)c2)c1-c1ccc2nn(C)cc2c1` (stereo not drawn) [Example 149, 4-[2-(4-aminoazepan-1-yl)-6-methoxy-5-(2-methyl-2H-indazol-5-yl)pyrimidin-4-yl]-2-fluorobenzonitrile], the IC50 in the assay with THP-1 (AML) cells (setting [1]) and at full-length human LSD1 (setting [2]) was under 100 nM each time.

With `Cn1ncc2cc(-c3cnc(N4CC5CNCC(C5)C4)nc3-c3ccc(C#N)cc3)ccc21` [Example 120, 4-[2-(3,7-diazabicyclo[3.3.1]nonan-3-yl)-5-(1-methylindazol-5-yl)pyrimidin-4-yl]benzonitrile], the IC50 in the assay on THP-1 (AML) cells (setting [1]) was 100 to 1000 nM; on full-length human LSD1 (setting [2]), under 100 nM.
